Results as given in patent publication US9586905B2, “Benzoazepine derivative and medical use thereof” (SANWA KAGAKU KENKYUSHO CO., LTD., priority 2012, dated 2017).

Legend:
human V2 receptor = biological target: T1, human V2 receptor (Homo sapiens, UniProt P30518); assay: cAMP production test in V2 receptor expression cell; type: cell-based; details: for EC50: human V2 receptor expression cell, 30 minutes at room temperature, HTRF cAMP kit; for Emax: maximum reaction by 8-AVP assumed to be 100%
T1 construct: A DNA fragment containing a human V2 receptor code region; expressed in transfected cells
Description: Pharmacological Test (1) Preparation of Human V2 Receptor Expression Cell
A DNA fragment containing a human V2 receptor code region was inserted into an expression vector of a vertebrate cell. The expression vector was genetically introduced into an animal cell to have the human V2 receptor express in the surface of the cell. Since the expression vector could express a neo gene which functions as a G418 resistance marker, it was cultured in a G418-containing medium, thereby selectively obtaining a human V2 receptor stable expression cell.
(2) cAMP Production Test in V2 Receptor Expression Cell
The human V2 receptor expression cell, which was prepared in the above described method, was recovered and resuspended into an incubation buffer (F-12 medium, 20 mM HEPES), and 5 μl of the cell was then divided into a 384-well plate with a density of 15,000 cells/well. 5 μl of a compound solution or an 8-AVP ((Arg^8)-vasopressin) solution, which was diluted with an assay buffer (F-12 medium, 20 mM HEPES, 1 mM IBMX), (total 10 μl/well) was added to each well (final concentration: 15,000 cells/well, 500 μM IBMX, 1% dimethyl sulfoxide). After incubation at room temperature for 30 minutes, a cAMP production amount was measured using a commercially available HTRF cAMP kit (Cisbio Inc.) according to the described protocol. Excel Fit was used in order to find EC50 and Emax values of the test compound.

CYP3A4 = biological target: T2, CYP3A4 (Homo sapiens, UniProt P08684); assay: Test of inhibition of cytochrome P450 (3A4) enzyme; type: in vitro ADME; details: human liver microsome, midazolam 2.5 μM as substrate, test compound 0.21 to 50 μM, 37° C. 10 minutes
T2 construct: human liver microsome with a protein concentration of 0.1 mg protein/mL; from tissue; host or cells: human liver microsomes
Description: (4) Test of Inhibition of Cytochrome P450 (3A4) Enzyme
(§1) Using a 96 well plate, midazolam (2.5 μM) as a substrate, a test compound (0.21 to 50 μM), human liver microsome with a protein concentration of 0.1 mg protein/mL were added to a 0.1 M phosphoric acid buffer solution (pH=7.4), which contains 1.55 mM NADP^+, 3.3 mM glucose-6-phosphate, 3.3 mM MgCl2 and 0.4 Units/ml of glucose-6-phosphate dehydrogenase to form a reaction solution having a total amount of 500 μl. The reaction solution was incubated at 37° C. for 10 minutes and 4-hold amount of cold acetonitrile was added thereto to terminate the reaction. Then, the reaction solution was centrifuged (5000 g×10 minutes×4° C.), and the supernatant was collected to measure a production amount of a metabolized product by LC/MS/MS.

Rat PK test = type: in vivo; details: iv, male Sprague-Dawley rat, caudal vein administration, 0.5 mg/kg, plasma; for Vd: CLp multiplied by MRT, read-out: Vdss; for clearance: administration amount divided by AUC0-∞, read-out: CLp (converted)
Description: A male Sprague-Dawely (Crj: CD(SD)IGS: CHARLES RIVER LABORATORIES JAPAN, INC.) rat was used between 7 to 8 weeks of age as an experimental animal. A rat fasted for one night was used. A test compound was dissolved into DMSO, thereto were added PEG and physical saline to adjust a concentration to be 0.5 mg/mL (20/20/60, v/v/v), and the solution was administered to the caudal vein in a use amount of 0.5 mg/kg. A blood sample was taken with a syringe treated with heparin from the jugular vein with time from 6 to 8 hours after administration and the taken blood was centrifuged to obtain plasma. A plasma drug concentration was measured using LC/MS/MS. For the sample for the LC/MS/MS measurement, a supernatant obtained by adding an internal standard substance and acetonitrile to the plasma and then deproteinization was used. A PK parameter was analyzed by a non-compartment model. A clearance (CLp) was calculated by dividing an administration amount by AUC0-∞. A distribution volume (Vdss) was calculated by multiplying CLp by a mean retention time (MRT).

CYP2C9 = biological target: T3, CYP2C9 (Homo sapiens, UniProt P11712); assay: Test of inhibition of cytochrome P450 (2C9) enzyme; type: in vitro ADME; details: human liver microsome, sulfaphenazole 10 μM, test compound 0.21 to 50 μM, 37° C. 10 minutes
T3 construct: human liver microsome with a protein concentration of 0.1 mg protein/mL; from tissue; host or cells: human liver microsomes
Description: (5) Test of Inhibition of Cytochrome P450 (2C9) Enzyme
as §1, with “sulfaphenazole (10” for “midazolam (2.5”, “[…].” for “500 μl.”

T1 sequence (P30518 whole entry, the tested form may be a part): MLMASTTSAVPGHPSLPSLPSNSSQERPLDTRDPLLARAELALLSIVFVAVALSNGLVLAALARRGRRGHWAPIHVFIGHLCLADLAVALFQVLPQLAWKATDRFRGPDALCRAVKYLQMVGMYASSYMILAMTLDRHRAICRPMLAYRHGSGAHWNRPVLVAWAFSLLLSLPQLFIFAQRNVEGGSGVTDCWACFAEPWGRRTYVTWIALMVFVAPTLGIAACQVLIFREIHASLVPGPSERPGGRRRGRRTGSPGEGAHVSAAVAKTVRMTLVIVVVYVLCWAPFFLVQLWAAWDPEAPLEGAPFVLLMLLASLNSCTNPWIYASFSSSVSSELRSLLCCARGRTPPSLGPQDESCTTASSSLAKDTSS
T2 sequence (P08684 whole entry): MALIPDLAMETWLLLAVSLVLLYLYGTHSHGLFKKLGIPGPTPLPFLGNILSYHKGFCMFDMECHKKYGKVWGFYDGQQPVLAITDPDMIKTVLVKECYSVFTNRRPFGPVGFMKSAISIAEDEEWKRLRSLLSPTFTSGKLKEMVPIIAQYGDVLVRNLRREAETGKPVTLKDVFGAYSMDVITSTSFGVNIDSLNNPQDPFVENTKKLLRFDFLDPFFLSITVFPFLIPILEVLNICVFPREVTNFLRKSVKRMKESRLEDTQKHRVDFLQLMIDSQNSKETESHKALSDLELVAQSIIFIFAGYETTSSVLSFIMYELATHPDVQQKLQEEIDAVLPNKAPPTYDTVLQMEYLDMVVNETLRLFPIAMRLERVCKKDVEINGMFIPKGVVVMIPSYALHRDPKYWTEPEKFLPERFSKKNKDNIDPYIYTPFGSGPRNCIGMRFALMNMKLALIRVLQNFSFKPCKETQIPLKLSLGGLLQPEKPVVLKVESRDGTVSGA
T3 sequence (P11712 whole entry): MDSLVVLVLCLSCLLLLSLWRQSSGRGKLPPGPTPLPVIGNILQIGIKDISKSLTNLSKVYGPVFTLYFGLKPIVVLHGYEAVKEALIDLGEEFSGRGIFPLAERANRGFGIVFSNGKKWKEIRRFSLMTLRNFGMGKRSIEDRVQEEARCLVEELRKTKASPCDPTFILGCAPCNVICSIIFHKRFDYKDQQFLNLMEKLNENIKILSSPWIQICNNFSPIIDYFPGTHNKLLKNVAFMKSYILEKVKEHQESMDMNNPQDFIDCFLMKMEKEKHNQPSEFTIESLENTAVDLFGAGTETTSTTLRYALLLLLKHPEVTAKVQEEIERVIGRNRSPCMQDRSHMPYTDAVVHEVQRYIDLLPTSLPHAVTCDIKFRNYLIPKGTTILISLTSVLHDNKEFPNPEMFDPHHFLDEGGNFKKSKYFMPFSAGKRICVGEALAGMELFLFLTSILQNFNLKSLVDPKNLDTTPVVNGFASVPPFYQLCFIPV

Structure (SMILES)	EC50 (human V2 receptor) [nM]	Emax (human V2 receptor) [%]	IC50 (CYP3A4) [µM]	AUC (Rat PK test) [ng·h/mL]	Vd (Rat PK test) [L/kg]	clearance (Rat PK test) [mL/min/kg]	IC50 (CYP2C9) [µM]
Cc1cc(N2CCCC2)ccc1C(=O)N1CCC(F)(C(=O)O)Cc2ccccc21 (single isomer, unassigned) [Example 54, 4-fluoro-1-[2-methyl-4-(pyrrolidine-1-yl)benzoyl]-2,3,4,5-tetrahydro-1H-benzo[b]azepine-4-carboxylic acid]	0.28	102	–	–	–	–	–
Cc1cc(N2CCCC2)ccc1C(=O)N1CCC(C)(C(=O)NC(C)C(N)=O)Cc2ccccc21 (single isomer, unassigned) [Example 68]	0.74	102	–	–	–	–	–
Cc1ccn(-c2ccc(C(=O)N3CCC(C)(C(=O)NC(C)CO)Cc4ccccc43)c(Cl)c2)n1 (single isomer, unassigned) [Example 72]	2.1	101	> 50	430	0.96	19.3	46.8
CC(NC(=O)C1(C)CCN(C(=O)c2ccc(OCC(F)(F)F)cc2Cl)c2ccccc2C1)C(N)=O (single isomer, unassigned) [Example 76]	0.99	102	–	–	–	–	–
Cc1ccn(-c2ccc(C(=O)N3CCC(C)(C(=O)NC(C)CO)Cc4ccccc43)c(C(F)(F)F)c2)n1 (single isomer, unassigned) [Example 89]	1.4	102	> 50	371	1.23	22.5	40.2
CC(NC(=O)C1(C)CCN(C(=O)c2ccc(N3CCCC3)cc2C(F)(F)F)c2ccccc2C1)C(N)=O (single isomer, unassigned) [Example 90]	0.39	101	–	613	1.08	13.6	–
C[C@@H]1CN(C(=O)c2ccc(-n3cccn3)cc2Cl)c2ccccc2CN1C(=O)NCCO [comparative compound 1, N-(2-hydroxyethyl)-(R)-1-(2-chloro-4-pyrazol-1-ylbenzoyl)-3-methyl-1,2,3,5-tetrahydro-benzo[e]-1,4-diazepine-4-carboxamide, reference compound]	–	–	–	176	4.72	47.8	–
CC(C)NC(=O)C[C@H]1CCCN(C(=O)c2ccc(N3CCCC3)cc2Cl)c2ccccc21 [comparative compound 2, 2-[(5R)-1-(2-chloro-4-pyrrolidine-1-ylbenzoyl)-2,3,4,5-tetrahydrobenzoazepine-5-yl]-N-isopropylacetoamide, reference compound]	–	–	0.4	–	–	–	0.2
